Experimental data from patent US10196685B2, “Methods and systems for delivering process gases to critical process applications” (RASIRC, INC., priority 2014, dated 2019).
Several values for one entry are separate records, joined by “and”; a condition that tells them apart may be missing. Identical values can stand only once. Like-named read-outs stand apart in the source and are kept apart here.

Columns and labels:
[1] = test system: E. coli; details: 1.7×10^7 cfu E. coli per spot; gas-phase H2O2 505 ppm, H2O 2122 ppm, 60 minutes, 25° C.
Description: The CDA gas pressure was maintained at 25 psig with the pressure regulator. A 0.01 micron filter removed particulates from the gas stream. The MFCs controlled the flow of the carrier gas streams and the dilution gas stream. […] The water temperature was used to control the output of the humidifier. The valves (V-1, V-2, and V-3) were used to send either the dry CDA gas stream, the RHS gas stream, and/or SGD gas stream through the furnace or out to vent. […] TC-3 and TC-4 were used to measure the gas temperature downstream of the SGD. The furnace was used to keep the bacterial samples at temperature to prevent condensation. TC-5 was used to measure the temperature in the quartz furnace. TC-6 was used to measure the gas temperature downstream of the furnace. A pressure gauge (PG-1) was used to monitor the pressure in the furnace. A Teledyne Prototype Analyzer was used to determine stability of the peroxide gas and its temperature was kept at 120° C. […] The boxed sections show the individual heat traced control zones for this experiment.
(§1) The initial test manifold was set to the following temperatures: • Zone 1=72° C. (Outlet temperature of SGD) • Zone 3=90° C.
The dilution gas flow rate was set to 5 slm, the RHS carrier gas to 180 sccm, and the SGD carrier gas flow to 1 slm. The RHS was then set to a 35° C. dew point, and the SGD to 30° C., running both gas streams to vent. […]

[2] = test system: bovine genomic DNA; details: H2O2 505 ppm, 5 hours; for Average Decrease %: three replicates
Procedure: as §1
The dilution gas flow rate was set to 5 slm, the RHS carrier gas to 180 sccm, and the SGD carrier gas flow to 1 slm. The RHS was then set to a 35° C. dew point, and the SGD to 30° C., running both gas streams to vent. The furnace and the heat-traced line temperatures were adjusted to achieve the desired gas temperatures. The SGD and RHS systems were allowed to stabilize. Samples were treated and processed as described in the following Examples.
A PCR plate to be used for quantifying amplifiable DNA was prepared with three replicates at each target input level (i.e., ranging from 0 ng to 1,000 ng). In each instance, measured aliquots of an aqueous solution of bovine genomic DNA were added to individual wells of the plate, and then dried. […] The chamber was initially purged for 15 minutes with CDA. […] Finally, the chamber was purged for an additional 15 minutes with CDA. Each well containing treated sample next received an aliquot of liquid reagents needed to carry out PCR amplification reactions. These reagents included: a pair of unlabeled DNA primers capable of amplifying the template; nucleotide triphosphates; buffer and salts; a dual-labeled hydrolysis probe specific for the DNA amplification product; and a thermostable DNA polymerase having 5′-3′ exonuclease activity. Amplification reactions were carried out using procedures familiar to those of ordinary skill in the art, and the appearance of fluorescent signals monitored as a function of time in a real-time format.

[3] = test system: E. coli
Procedure: (§2) A 0.01 micron filter removed particulates from the gas stream. […] The water temperature was used to control the output of the humidifier. […] The furnace was used to keep the bacterial samples at temperature to prevent condensation. […] The boxed sections show the individual heat traced control zones for this experiment.
as §1

[4] = test system: S. epi
Procedure: as §2, §1

[5] = test system: bacterial samples; details: visible mist or fog, droplets condensed onto the sample

Which results are given for `OO` [hydrogen peroxide gas, hydrogen peroxide]?
Growth on tryptic soy agar plates after H202 treatment (bacterial slides) [1]: No Growth; Decrease % ([2]; Input 1 ng DNA, 25° C.): 100%; Remaining % ([2]; Input 1 ng DNA, 25° C.): 0%; Calculated ng After Treatment ([2]; Input 1 ng DNA, H2O 2122 ppm, 25° C.): 0 ng; Average Decrease % ([2]; Input 1 ng DNA, 25° C.): 100.00%; Decrease % ([2]; Input 10 ng DNA, 25° C.): 98.55% and 99.28% and 94.5%; Average Decrease % ([2]; Input 10 ng DNA, 25° C.): 97.44%; Decrease % ([2]; Input 100 ng DNA, 25° C.): 99.19% and 99.92% and 99.978%; Average Decrease % ([2]; Input 100 ng DNA, 25° C.): 99.70%; Decrease % ([2]; Input 1000 ng DNA, 25° C.): 99.9957% and 99.9953% and 99.967%; Average Decrease % ([2]; Input 1000 ng DNA, 25° C.): 99.99%; Reduction of amplifiable DNA ([2]; sample containing the greatest amount of starting material): about 4 logs; Amplifiable DNA after treatment ([2]; sample containing the lowest amount of starting material): completely undetectable; CONCENTRATION (E. coli in device with H2O2) ([3]; hydrogen peroxide gas 30 minutes, average H2O2 output 561±27 ppm, ≥25° C., stock 2.5 × 10^7): NO GROWTH; Sterilization result in words ([3]; tests of FIGS. 32 and 33, 30 minutes H2O2 gas): completely sterilized; CONCENTRATION (S. epi in device with H2O2) ([4]; 5 hour H2O2 exposure, average H2O2 output 518±14 ppm, stock 3.5 × 10^6): NO GROWTH; Sterilization result in words ([4]; fifth experiment, 5 hour H2O2 exposure, 518±14 ppm): sterilized; CONCENTRATION (S. epi in device with H2O2) ([4]; hydrogen peroxide gas 30 minutes, average H2O2 output 561±27 ppm, ≥25° C., stock 5.0 × 10^6, contamination believed): ~10^4 to 10^5 estimated; Effect on the number of viable organisms [5]: did not significantly reduce the number of viable organisms
